Measured values taken from BigSolDB 2.1.

In the case of `CCc1cccc(CC)c1/N=C(C)/C=C(/C)Nc1c(CC)cccc1CC`, the solubility (mole fraction) (in THF, 268.15 K) is reported as 0.134, the solubility (mole fraction) (in THF, 273.15 K) is reported as 0.147 and the solubility (mole fraction) (in THF, 278.15 K) is reported as 0.164. For the same compound, the solubility (mole fraction) (in THF, 283.15 K) was 0.186, the solubility (mole fraction) (in THF, 288.15 K) was 0.213 and the solubility (mole fraction) (in THF, 293.15 K) was 0.246. It also gave a solubility (mole fraction) (in THF, 298.15 K) of 0.282, a solubility (mole fraction) (in THF, 303.15 K) of 0.319 and a solubility (mole fraction) (in diethyl ether, 268.15 K) of 0.0732. It also gave a solubility (mole fraction) (in diethyl ether, 273.15 K) of 0.0961, a solubility (mole fraction) (in diethyl ether, 278.15 K) of 0.123 and a solubility (mole fraction) (in diethyl ether, 283.15 K) of 0.152. It also gave a solubility (mole fraction) (in diethyl ether, 288.15 K) of 0.184, a solubility (mole fraction) (in diethyl ether, 293.15 K) of 0.215 and a solubility (mole fraction) (in diethyl ether, 298.15 K) of 0.248. It also gave a solubility (mole fraction) (in diethyl ether, 303.15 K) of 0.283, a solubility (mole fraction) (in ethanol, 268.15 K) of 0.00158 and a solubility (mole fraction) (in ethanol, 273.15 K) of 0.00186. For the same compound, the solubility (mole fraction) (in ethanol, 278.15 K) was 0.0022, the solubility (mole fraction) (in ethanol, 283.15 K) was 0.00258 and the solubility (mole fraction) (in ethanol, 288.15 K) was 0.00315. It also gave a solubility (mole fraction) (in ethanol, 293.15 K) of 0.00369, a solubility (mole fraction) (in ethanol, 298.15 K) of 0.00476 and a solubility (mole fraction) (in ethanol, 303.15 K) of 0.00595. It also gave a solubility (mole fraction) (in ethanol, 308.15 K) of 0.00738, a solubility (mole fraction) (in ethanol, 313.15 K) of 0.00964 and a solubility (mole fraction) (in methanol, 268.15 K) of 0.0003. The solubility (mole fraction) (in methanol, 273.15 K) was 0.00037, the solubility (mole fraction) (in methanol, 278.15 K) was 0.00047 and the solubility (mole fraction) (in methanol, 283.15 K) was 0.00058. For the same compound, the solubility (mole fraction) (in methanol, 288.15 K) was 0.00072, the solubility (mole fraction) (in methanol, 293.15 K) was 0.00089 and the solubility (mole fraction) (in methanol, 298.15 K) was 0.0011. It also gave a solubility (mole fraction) (in methanol, 303.15 K) of 0.00138, a solubility (mole fraction) (in methanol, 308.15 K) of 0.00173 and a solubility (mole fraction) (in methanol, 313.15 K) of 0.0022. The solubility (mole fraction) (in n-hexane, 268.15 K) was 0.0373, the solubility (mole fraction) (in n-hexane, 273.15 K) was 0.0478 and the solubility (mole fraction) (in n-hexane, 278.15 K) was 0.0609. It also gave a solubility (mole fraction) (in n-hexane, 283.15 K) of 0.0769, a solubility (mole fraction) (in n-hexane, 288.15 K) of 0.0964 and a solubility (mole fraction) (in n-hexane, 293.15 K) of 0.12. It also gave a solubility (mole fraction) (in n-hexane, 298.15 K) of 0.148, a solubility (mole fraction) (in n-hexane, 303.15 K) of 0.182 and a solubility (mole fraction) (in n-hexane, 308.15 K) of 0.223. The solubility (mole fraction) (in n-hexane, 313.15 K) was 0.271, the solubility (mole fraction) (in toluene, 268.15 K) was 0.147 and the solubility (mole fraction) (in toluene, 273.15 K) was 0.162. The solubility (mole fraction) (in toluene, 278.15 K) was 0.178, the solubility (mole fraction) (in toluene, 283.15 K) was 0.196 and the solubility (mole fraction) (in toluene, 288.15 K) was 0.216. The solubility (mole fraction) (in toluene, 293.15 K) was 0.236, the solubility (mole fraction) (in toluene, 298.15 K) was 0.259 and the solubility (mole fraction) (in toluene, 303.15 K) was 0.284. It also gave a solubility (mole fraction) (in toluene, 308.15 K) of 0.312 and a solubility (mole fraction) (in toluene, 313.15 K) of 0.342.
